{"source": "patent US6489320B1", "about": "“5, 5-disubstituted-1, 5-dihydro-4, 1-benzoxazepin-2 (3H)-ones useful as HIV reverse transcriptase inhibitors” (Bristol-Myers Squibb Pharma Company, priority 1997, dated 2002)", "key": {"HIV-1 (RF)": {"system": "HIV-1 (RF)", "test": "HIV RNA assay: microplate based compound evaluation in HIV-1 infected MT-2 cells", "format": "cell-based", "details": "Human immunodeficiency virus 1, MT2, 72 h; HIV-1 (RF) infected MT-2 cells, 3 days; virus dilutions selected to give this value (standardization of inoculum); read-out: IC90 value (concentration of compound required to reduce the HIV RNA level by 90%)", "experimental": "Plasmid pDAB 72 containing both gag and pol sequences of BH10 (bp 113-1816) cloned into PTZ 19R was prepared according to Erickson-Viitanen et al. AIDS Research and Human Retroviruses 1989, 5, 577. The plasmid was linearized with Bam HI prior to the generation of in vitro RNA transcripts using the Riboprobe Gemini system II kit (Promega) with T7 RNA polymerase. Synthesized RNA was purified by treatment with RNase free DNAse (Promega), phenol-chloroform extraction, and ethanol precipitation. RNA transcripts were dissolved in water, and stored at −70° C. The concentration of RNA was determined from the A260.\nBiotinylated capture probes were purified by HPLC after synthesis on an Applied Biosystems (Foster City, Calif.) DNA synthesizer by addition of biotin to the 5′ terminal end of the oligonucleotide, using the biotin-phosphoramidite reagent of Cocuzza, Tet. Lett. 1989, 30, 6287. […]\nMT-2 and MT-4 cells were maintained in RPMI 1640 supplemented with 5% fetal calf serum (FCS) for MT-2 cells or 10% FCS for MT-4 cells, 2 mM L-glutamine and 50 μg/mL gentamycin, all from Gibco. […] Infectious titers of HIV-1(RF) stocks were 1-3×10^7 PFU (plaque forming units)/mL as measured by plaque assay on MT-2 cells (see below). […]"}}, "data": [{"smiles": "CC(C)/C=C/C1(C(F)(F)F)OCC(=O)Nc2ccc(Cl)cc21", "note": "(stereo not drawn) [Example 20, trans-7-Chloro-5-(2-isopropylethenyl)-1,5-dihydro-5-(trifluoromethyl)-4,1-benzoxazepin-2(3H)-one]", "values": [{"measurement": "melting point", "result": "148 to 149", "unit": "°C"}]}, {"smiles": "COc1ccc2c(c1)C(CCC(C)C)(C(F)(F)F)OCC(=O)N2", "note": "(stereo not shown) [Example 21, 7-Methoxy-5-(3-methylbutyl)-1,5-dihydro-5-(trifluoromethyl)-4,1-benzoxazepin-2(3H)-one]", "values": [{"measurement": "melting point", "result": "129 to 130", "unit": "°C"}]}, {"smiles": "O=C1COC(C#Cc2cccnc2)(C(F)(F)F)c2cc(Cl)ccc2N1", "note": "(stereo not shown) [Example 24, 7-Chloro-5-(3-pyridylethynyl)-1,5-dihydro-5-(trifluoromethyl)-4,1-benzoxazepin-2(3H)-one]", "values": [{"measurement": "melting point", "result": "219 to 221", "unit": "°C"}]}, {"smiles": "CC(C)/C=C/C1(C(F)(F)F)OCC(=O)Nc2ccc(F)c(F)c21", "note": "(stereo not drawn) [Example 27, trans-6,7-Difluoro-5-(2-isopropylethenyl)-1,5-dihydro-5-(trifluoromethyl)-4,1-benzoxazepin-2(3H)-one]", "values": [{"measurement": "melting point", "result": "159 to 160", "unit": "°C"}]}, {"smiles": "C[C@@H]1O[C@](C#CC2CC2)(C(F)(F)F)c2cc(Cl)ccc2NC1=O", "note": "[Example 36, (+)-(3S,5S)-7-Chloro-5-cyclopropylethynyl-1,5-dihydro-3-methyl-5-(trifluoromethyl)-4,1-benzoxazepin-2(3H)-one]", "values": [{"measurement": "melting point", "result": "145 to 146", "unit": "°C"}]}, {"smiles": "C[C@@H]1O[C@](/C=C/C2CC2)(C(F)(F)F)c2cc(Cl)ccc2NC1=O", "note": "[Example 39, (+)-(3S,5S)-trans-7-Chloro-5-(2-cyclopropylethenyl)-1,5-dihydro-3-methyl-5-(trifluoromethyl)-4,1-benzoxazepin-2(3H)-one]", "values": [{"measurement": "melting point", "result": "175 to 175.5", "unit": "°C"}]}, {"smiles": "Nc1ccn([C@H]2CC[C@@H](CO)O2)c(=O)n1", "note": "[ddC, 2′,3′-dideoxycytidine]", "values": [{"measurement": "IC90", "setting": "HIV-1 (RF)", "result": 0.2, "unit": "µg/mL"}]}]}
